The values that follow come from patent publication US12398097B2, “WDR5-MYC inhibitors” (Vanderbilt University, priority 2019, dated 2025).

This assay has as its target WDR5 (Homo sapiens, UniProt P61964). Kind of assay: Competition-based fluorescence polarization anisotropy assay. As to conditions: binding to WDR5; displacement of FITC-labeled small molecule probe (analogous to Example J2 or HCH-25) or peptide probe FITC-AHx-SEEEIDVVSV; pH 6.0; Ki converted from IC50. The gist of the method:
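Ki values derive from displacement of either a fluorescent small-molecule probe or a FITC-peptide probe from WDR5, monitored by fluorescence polarization. Assay run at pH 6.0 in 200 mM phosphate with 300 mM NaCl, 0.5 mM TCEP and 0.1% Chaps.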
As to `CC(O)(CNC(=O)c1cc(OC(F)(F)F)cc(NS(=O)(=O)c2cc(Br)cc(Cl)c2O)c1O)C1CC1` (stereo not drawn) [HCH-51, 3-((5-Bromo-3-chloro-2-hydroxyphenyl)sulfonamido)-N-(2-cyclopropyl-2-hydroxypropyl)-2-hydroxy-5-(trifluoromethoxy)benzamide], the affinity corresponds to a Ki of 120 nM.
Turning to `CC(C)C(O)CNC(=O)c1cc(OC(F)(F)F)cc(NS(=O)(=O)c2cc(Br)cc(Cl)c2O)c1O` (stereo not drawn) [HCH-52, 3-((5-Bromo-3-chloro-2-hydroxyphenyl)sulfonamido)-2-hydroxy-N-(2-hydroxy-3-methylbutyl)-5-(trifluoromethoxy)benzamide], the inhibition constant Ki (usually the equilibrium dissociation constant of an inhibitor or competing ligand from its target) is 140 nM.
The compound `O=C(NCC1(O)CCOCC1)c1cc(OC(F)(F)F)cc(NS(=O)(=O)c2cc(Br)cc(Cl)c2O)c1O` [HCH-53, 3-((5-Bromo-3-chloro-2-hydroxyphenyl)sulfonamido)-2-hydroxy-N-((4-hydroxytetrahydro-2H-pyran-4-yl)methyl)-5-(trifluoromethoxy)benzamide] registered a Ki of 170 nM.
In turn, `O=C(NC1COC1)c1cc(OC(F)(F)F)cc(NS(=O)(=O)c2cc(Br)cc(Cl)c2O)c1O` [HCH-54, 3-((5-Bromo-3-chloro-2-hydroxyphenyl)sulfonamido)-2-hydroxy-N-(oxetan-3-yl)-5-(trifluoromethoxy)benzamide] gave a Ki of 140 nM.
In turn, `O=C(NC1CC(F)(F)C1)c1cc(OC(F)(F)F)cc(NS(=O)(=O)c2cc(Br)ccc2O)c1O` [HCH-55, 3-((5-Bromo-2-hydroxyphenyl)sulfonamido)-N-(3,3-difluorocyclobutyl)-2-hydroxy-5-(trifluoromethoxy)benzamide] gave a Ki of 350 nM.
In turn, `NC(=O)[C@H](CO)NC(=O)c1cc(OC(F)(F)F)cc(NS(=O)(=O)c2cc(Br)cc(Cl)c2O)c1O` [HCH-56, (S)—N-(1-Amino-3-hydroxy-1-oxopropan-2-yl)-3-((5-bromo-3-chloro-2-hydroxyphenyl)sulfonamido)-2-hydroxy-5-(trifluoromethoxy)benzamide] came in with a Ki of 190 nM.
`CC(NC(=O)c1cc(OC(F)(F)F)cc(NS(=O)(=O)c2cc(Br)cc(Cl)c2O)c1O)C(N)=O` (stereo not drawn) [HCH-57, N-(1-Amino-1-oxopropan-2-yl)-3-((5-bromo-3-chloro-2-hydroxyphenyl)sulfonamido)-2-hydroxy-5-(trifluoromethoxy)benzamide]: the inhibitory constant (Ki) was determined as 150 nM.
`CCc1cc(Br)cc(S(=O)(=O)Nc2cc(Cl)cc(C(=O)NC3COC3)c2O)c1O` [HCH-58, 3-((5-Bromo-3-ethyl-2-hydroxyphenyl)sulfonamido)-5-chloro-2-hydroxy-N-(oxetan-3-yl)benzamide]: the Ki is 460 nM.
Take `CCc1cc(Br)cc(S(=O)(=O)Nc2cc(Cl)cc(C(=O)NC(C)C(N)=O)c2O)c1O` (stereo not drawn) [HCH-59, N-(1-Amino-1-oxopropan-2-yl)-3-((5-bromo-3-ethyl-2-hydroxyphenyl)sulfonamido)-5-chloro-2-hydroxybenzamide]: the Ki worked out at 340 nM.
For the compound `COC1CC(NC(=O)c2cc(OC(F)(F)F)cc(NS(=O)(=O)c3cc(Br)cc(Cl)c3O)c2O)C1` (stereo not drawn) [HCH-60, 3-((5-Bromo-3-chloro-2-hydroxyphenyl)sulfonamido)-2-hydroxy-N-(3-methoxycyclobutyl)-5-(trifluoromethoxy)benzamide], the Ki came to 240 nM.
`O=C(NC1CC(O)C1)c1cc(OC(F)(F)F)cc(NS(=O)(=O)c2cc(Br)cc(Cl)c2O)c1O` (stereo not drawn) [HCH-61, 3-((5-Bromo-3-chloro-2-hydroxyphenyl)sulfonamido)-2-hydroxy-N-(3-hydroxycyclobutyl)-5-(trifluoromethoxy)benzamide] had an inhibition constant Ki of 240 nM.
On to `NC(=O)c1cc(OC(F)(F)F)cc(NS(=O)(=O)c2cc(Br)cc(Cl)c2O)c1O` [HCH-62, 3-((5-Bromo-3-chloro-2-hydroxyphenyl)sulfonamido)-2-hydroxy-5-(trifluoromethoxy)benzamide], for which the Ki was 330 nM.
`CNC(=O)c1cc(OC(F)(F)F)cc(NS(=O)(=O)c2cc(Br)cc(Cl)c2O)c1O` [HCH-63, 3-((5-Bromo-3-chloro-2-hydroxyphenyl)sulfonamido)-2-hydroxy-N-methyl-5-(trifluoromethoxy)benzamide] showed a Ki of 200 nM.
In turn, `N#CC1(c2ccc(O)c(NS(=O)(=O)c3cc(Br)ccc3O)c2)CCCC1` [JDM-06-030A, 5-Bromo-N-(5-(1-cyanocyclopentyl)-2-hydroxyphenyl)-2-hydroxybenzenesulfonamide] displayed an inhibition constant Ki of 610 nM.
In the case of `N#CC1(c2ccc(O)c(NS(=O)(=O)c3cc(Br)ccc3O)c2)CCC1` [JDM-06-030B, 5-Bromo-N-(5-(1-cyanocyclobutyl)-2-hydroxyphenyl)-2-hydroxybenzenesulfonamide], the inhibition constant (Ki) came out at 290 nM.
In turn, `N#CC1(c2ccc(O)c(NS(=O)(=O)c3cc(Br)ccc3O)c2)CCCCC1` [JDM-06-030C, 5-Bromo-N-(5-(1-cyanocyclohexyl)-2-hydroxyphenyl)-2-hydroxybenzenesulfonamide] returned a Ki of 230 nM.
In the case of `O=S(=O)(Nc1cc(S(F)(F)(F)(F)F)ccc1O)c1cc(Br)ccc1O` [JDM-08-142A, 5-Bromo-2-hydroxy-N-(2-hydroxy-5-(pentafluorosulfanyl)phenyl)benzenesulfonamide], the inhibition constant Ki amounted to 110 nM.
In the case of `O=S(=O)(Nc1cc(C2(C(F)(F)F)CC2)ccc1O)c1cc(Br)ccc1O` [JDM-09-131, 5-Bromo-2-hydroxy-N-(2-hydroxy-5-(1-(trifluoromethyl)cyclopropyl)phenyl)benzenesulfonamide] it was 550 nM.
In the case of `N#CC1(c2ccc(O)c(NS(=O)(=O)c3cc(Br)ccc3O)c2)CC1` [JDM-10-107, 5-Bromo-N-(5-(1-cyanocyclopropyl)-2-hydroxyphenyl)-2-hydroxybenzenesulfonamide] it was 850 nM; in that of `O=S(=O)(Nc1cc(C2CC2)ccc1O)c1cc(Br)ccc1O` [JDM-10-108A, 5-Bromo-N-(5-cyclopropyl-2-hydroxyphenyl)-2-hydroxybenzenesulfonamide], 820 nM; in that of `COc1ccc(Br)cc1S(=O)(=O)Nc1cc(Cl)cc([N+](=O)[O-])c1O` [NE1, 5-Bromo-N-(5-chloro-2-hydroxy-3-nitrophenyl)-2-methoxybenzenesulfonamide], 1780 nM.
Take `COc1ccc(Cl)cc1S(=O)(=O)Nc1cc(Cl)cc([N+](=O)[O-])c1O` [NE2, 5-Chloro-N-(5-chloro-2-hydroxy-3-nitrophenyl)-2-methoxybenzenesulfonamide]: the Ki was found to be 5050 nM.
As to `O=[N+]([O-])c1cc(Cl)cc(NS(=O)(=O)c2cc(Br)ccc2O)c1O` [NE6, 5-Bromo-N-(5-chloro-2-hydroxy-3-nitrophenyl)-2-hydroxybenzenesulfonamide], the affinity, expressed as Ki, was 12400 nM.
In the case of `O=[N+]([O-])c1cc(Cl)cc(NS(=O)(=O)c2cc(Br)cc3c2OCC3)c1O` [NE7, 5-Bromo-N-(5-chloro-2-hydroxy-3-nitrophenyl)-2,3-dihydrobenzofuran-7-sulfonamide], the affinity corresponds to a Ki of 1110 nM.
In the case of `COc1cc(OC)c(S(=O)(=O)Nc2cc(Cl)cc([N+](=O)[O-])c2O)cc1Br` [NE8, 5-Bromo-N-(5-chloro-2-hydroxy-3-nitrophenyl)-2,4-dimethoxybenzenesulfonamide] it was 7240 nM.
Compound `O=[N+]([O-])c1cc(Cl)cc(NS(=O)(=O)c2cc(Br)cc(OC(F)(F)F)c2O)c1O` [NE9, 5-Bromo-N-(5-chloro-2-hydroxy-3-nitrophenyl)-2-hydroxy-3-(trifluoromethoxy)benzenesulfonamide] displayed an inhibitory constant (Ki) of 390 nM.
With `CCCc1cc(Br)cc(S(=O)(=O)Nc2cc(Cl)cc([N+](=O)[O-])c2O)c1O` [NE10, 5-Bromo-N-(5-chloro-2-hydroxy-3-nitrophenyl)-2-hydroxy-3-propylbenzenesulfonamide], the Ki was 11700 nM.
In turn, `O=C(O)c1cc(Br)cc(S(=O)(=O)Nc2cc(Cl)cc([N+](=O)[O-])c2O)c1O` [NE12] came in with a Ki of 610 nM.
Consider `O=C1CCCN1c1cc(Cl)cc(NS(=O)(=O)c2cc(Br)cc(Cl)c2O)c1` [NE13, 5-Bromo-3-chloro-N-(3-chloro-5-(2-oxopyrrolidin-1-yl)phenyl)-2-hydroxybenzenesulfonamide], for which affinity was put at a Ki of 1420 nM.
Take `O=C1NCCN1c1cc(Cl)cc(NS(=O)(=O)c2cc(Br)cc(Cl)c2O)c1` [NE14, 5-Bromo-3-chloro-N-(3-chloro-5-(2-oxoimidazolidin-1-yl)phenyl)-2-hydroxybenzenesulfonamide]: affinity was put at a Ki of 370 nM.
On to `CNC(=O)c1cc(C2(C#N)CCC2)cc(NS(=O)(=O)c2cc(Br)cc(Cl)c2OC)c1O` [SN-3, 3-((5-bromo-3-chloro-2-methoxyphenyl)sulfonamido)-5-(1-cyanocyclobutyl)-2-hydroxy-N-methylbenzamide], for which the affinity corresponds to a Ki of 13700 nM.
In the case of `COc1c(Cl)cc(Br)cc1S(=O)(=O)Nc1cc(C2(C#N)CCC2)cc(C(=O)O)c1O` [SN-4, 3-((5-bromo-3-chloro-2-methoxyphenyl)sulfonamido)-5-(1-cyanocyclobutyl)-2-hydroxybenzoic acid] it was 870 nM.
`CNC(=O)c1cc(C2(C#N)CCC2)cc(NS(=O)(=O)c2cc(Br)c(F)cc2OC)c1O` [SN-5, 3-((5-bromo-4-fluoro-2-methoxyphenyl)sulfonamido)-5-(1-cyanocyclobutyl)-2-hydroxy-N-methylbenzamide]: affinity was put at a Ki of 2620 nM.
`N#CC1(c2cc(NS(=O)(=O)c3cc(Br)cc4cccnc34)c(O)c(C(=O)O)c2)CCC1` [SN-6, 3-((6-bromoquinoline)-8-sulfonamido)-5-(1-cyanocyclobutyl)-2-hydroxybenzoic acid] registered an inhibition constant Ki of 40 nM.
Take `CNC(=O)c1cc(C2(C#N)CCC2)cc(NS(=O)(=O)c2cc(Br)cc3c2OCC3)c1O` [SN-9, 3-((5-bromo-2,3-dihydrobenzofuran)-7-sulfonamido)-5-(1-cyanocyclobutyl)-2-hydroxy-N-methylbenzamide]: the Ki was 990 nM.
`N#CC1(c2cc(NS(=O)(=O)c3cc(Br)cc4c3OCC4)c(O)c(C(=O)O)c2)CCC1` [SN-10, 3-((5-bromo-2,3-dihydrobenzofuran)-7-sulfonamido)-5-(1-cyanocyclobutyl)-2-hydroxybenzoic acid] had an inhibition constant (Ki) of 50 nM.
